Data on 75 compounds can be found in patent publication US10940139B2, “Compounds that interact with the Ras superfamily for the treatment of cancers, inflammatory diseases, rasopathies, and fibrotic disease” (Shy Therapeutics LLC, priority 2017, dated 2021).

Sequence of KRas G12D/Q61H double mutant (P01116-2 other isoform, or with tags, fused parts or gaps G12D/Q61H): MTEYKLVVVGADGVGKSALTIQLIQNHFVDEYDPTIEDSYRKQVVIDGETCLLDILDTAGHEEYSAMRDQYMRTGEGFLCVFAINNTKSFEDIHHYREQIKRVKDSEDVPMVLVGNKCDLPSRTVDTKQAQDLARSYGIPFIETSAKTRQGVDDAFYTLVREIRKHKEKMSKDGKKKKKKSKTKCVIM

One test deals with KRas G12D/Q61H double mutant (Homo sapiens (Human), UniProt P01116, G12D/Q61H). Briefly: Ras GTP binding domain inhibition assay (labeled GTP). The note with it: 20 μM compound; KRas G12D/Q61H double mutant; read-out: % Inhibition at 20 μM of K-Ras mutant and wild-type protein, KRas G12D Q61H. The procedure:
Buffer-I: • 50 mM Tris, pH 7.5 • 150 mM NaCl (optional) • 1 mM MgCl2 • 1 mM DTT. • KRas G12D mutant protein was expressed as a His-tagged protein. Purified His-KRas G12D protein was diluted in buffer-I to a final concentration of 3-10 μg/ml. • 200 μl of the diluted His-KRas G12D protein was added to a nickel coated 96 well plate and incubated overnight at 4° C. • The next day, wells were washed 3× in 200 μl of Buffer-I. • Then 200 μl of Buffer-I were added to each well in the presence of 1% DMSO. • Tested compounds were added to the protein-coated wells at a concentration of 20 μM, and incubated for 3 hours at room temperature. While performing IC50 measurements a serial dilution of all tested concentrations was prepared.
Then 22 μl of Cy3-GTP or Cy5-GTP was added to each well. The labeled GTP was incubated for 45 min. at room temperature. • Following GTP incubation, wells were washed 3× in Buffer-I, and 200 μl of Buffer-I were added to each well. • Following washes, the amount of bound labeled-GTP was measured with an Eppendorf AF2200 plate reader.
By substituting KRas G12D mutant protein with KRas G12C mutant, KRas wild type, KRas Q61H mutant, KRas G12D/Q61H double mutant or KRas G12C/Q61H double mutant under the assay conditions described above, KRas G12C mutant KRas wild type, KRas Q61H mutant, KRas G12D/Q61H double mutant and KRas G12C/Q61H double mutant inhibition, respectively, were each determined.
Regarding `CCOc1ccc(-c2nc(CSc3nc4ccccc4n3CCOC)cs2)cc1OC`, the inhibition at 20 µM lay in the range of 25 to 50%.

As to `CCc1oc2ccccc2c1CN(C)C(=O)c1cccc(OCc2c(C)noc2C)c1`, the inhibition at 20 µM was 25 to 50%. The same measure, in the same setting: the same measure for `Cc1cc(C)c(S(=O)(=O)Nc2ccc(Oc3ccccc3C#N)nc2)c(C)c1`: 25 to 50%; for `CCN(CC)S(=O)(=O)c1ccc(C(C)NCc2ccc(Cl)s2)cc1` (stereo not shown): 25 to 50%; for `CCOc1ccccc1CN(CCCn1ccnc1)C(=O)Nc1ccc(OC(F)F)c(Cl)c1`: 25 to 50%. Turning to `COc1cccc(N2CCN(C(=O)c3ccccc3SCC(=O)N3CCc4ccccc43)CC2)c1`, the inhibition at 20 µM is 1 to 25%.

On to `CCC(C)(C)c1ccc(Oc2ccc(NC(=O)NS(=O)(=O)c3ccc(C)cc3)cc2)cc1`, for which the inhibition at 20 µM was in the range of 51 to 75%. On the same count and under the same terms, the same measure for `COCCCN(C(=O)c1ccc(-n2nc(C)c(Cl)c2C)cc1)S(=O)(=O)c1ccc(OC)cc1`: 25 to 50%; for `CCOc1ccc(CN(C)CC(=O)Nc2ccc3c(c2)c2ccccc2n3CC)cc1OC`: 25 to 50%. Still for that read-out and setting: for `CCc1noc(CN(CCN(Cc2nc(CC)no2)c2ccccc2)c2ccccc2)n1` the value was 51 to 75%.

In the case of `COc1ccc(-c2oc3ncn(CCCn4ccnc4)c(=N)c3c2-c2ccc(OC)cc2)cc1`, the inhibition at 20 µM was in the range of 25 to 50%. Same read-out and setting: the same measure for `COCCCOC1(CSc2nnc(COc3cc(C)ccc3C)o2)CCCC1`: 25 to 50%. Same read-out and setting: the same measure for `CCN(CCNC(=O)c1oc(-c2ccccc2)nc1C)c1ccccc1C`: 51 to 75%. On the same count and under the same terms, for `Cc1ccc(Sc2ccc(S(=O)(=O)NC3CCCC3)cc2)cc1C` the value was 1 to 25%.

The test is the same for the next values; noted with them: 20 μM compound; read-out: % Inhibition at 20 μM KRas G12D Q61H.
For `O=C(NCc1ccccn1)c1ccn(-c2cccc(Cl)c2)n1`, the inhibition at 20 µM lay within 25 to 50%.

On to `Clc1csc2nc(-c3ccccn3)nc(N3CCOCC3)c12` [drawing 2707], for which the inhibition at 20 µM was in the range of 1 to 25%.

Take `CN(c1ccccc1)c1ccccc1NCc1nnnn1-c1ccccc1`: the inhibition at 20 µM was 1 to 25%.

On to `Cc1nn(C)c(C)c1CC(=O)Nc1nnc(-c2ccccn2)[nH]1`, for which the inhibition at 20 µM fell in the range of 25 to 50%. The same measure, in the same setting: for `O=C(NCC(=O)N1CCN(C2CC3CCC2C3)CC1)c1ccccn1` (stereo not shown) the value was 25 to 50%; for `Cc1ccc(C)c(OCC(O)CN(c2nccs2)S(=O)(=O)c2ccccc2)c1` (stereo not shown), 1 to 25%; for `CC(C)(C)c1ccc(OCC(=O)N2N=CCC2(O)C(F)(F)F)cc1` (stereo not shown), 25 to 50%. Regarding `COCc1nc(C)c(C(=O)Nc2nnc(-c3ccccn3)[nH]2)s1`, the inhibition at 20 µM was in the range of 25 to 50%. The same measure, in the same setting: the same measure for `CCOCCCNC(=O)c1cc(S(=O)(=O)N(CC)CC)ccc1NCCOC`: 1 to 25%. The same measure, in the same setting: the same measure for `CCNC(=O)CNc1nc(-c2ccccn2)nc(C)c1C`: 25 to 50%. Same read-out and setting: the same measure for `CC(=O)Nc1cccc(CNc2cc(C)nc(-c3ccccn3)n2)c1`: 25 to 50%; for `NC(=O)c1cc(N2CCN(c3cccc(C(F)(F)F)c3)CC2)nc2ccccc12`: 25 to 50%. In the case of `O=C(CCNS(=O)(=O)c1ccc2c(c1)CCCC2)Nc1nnc(-c2ccccn2)[nH]1`, the inhibition at 20 µM lay within 25 to 50%. As for `Nc1nc(O)c2scc(C(=O)N3CCC(N4CCCC4=O)CC3)c2n1` [drawing 2663], the inhibition at 20 µM lay within 25 to 50%. Still for that read-out and setting: for `CN(Cc1nnc(-c2ccccc2Cl)o1)Cc1ccccc1N1CCCC1` the value was 1 to 25%; for `COc1ccc(-c2nc(C(=O)NC(C)c3ccccn3)cs2)cc1` (stereo not shown), 25 to 50%; for `N#Cc1ccc(C2(C(=O)Nc3ccnc(-c4ccccn4)n3)CCCC2)cc1`, 25 to 50%. On the same count and under the same terms, the same measure for `OC1CCC(Nc2nc(-c3ccccn3)nc3scc(-c4ccccc4)c23)CC1` (stereo not shown): 25 to 50%; for `Cc1c(C(=O)Nc2nnc(-c3ccccn3)[nH]2)cnn1-c1ccc(C(F)(F)F)cn1`: 25 to 50%.

Take `Cc1nccc(-c2nc3cc(F)ccc3c(=O)[nH]2)n1`: the inhibition at 20 µM lay in the range of 76 to 100%. As for `O=C(Nc1nc(-c2ccccn2)cs1)c1ccc(=O)[nH]c1`, the inhibition at 20 µM was 25 to 50%. Consider `Cn1ccnc1COc1ccc(C(=O)Nc2nnc(-c3ccccn3)[nH]2)cc1`, for which the inhibition at 20 µM was 25 to 50%. As to `Cc1cccc(OC2CCN(c3nc(-c4ccccn4)nc4c3CCC4)CC2)n1`, the inhibition at 20 µM lay within 1 to 25%.

Take `O=C(Nc1nnc(-c2ccccn2)[nH]1)c1ccc(Cn2cncn2)cc1`: the inhibition at 20 µM was 25 to 50%. On the same count and under the same terms, the same measure for `COc1cc(C)ccc1OS(=O)(=O)N1CCc2ccccc2C1`: 1 to 25%; for `O=C(Cc1ccc(OC(F)(F)F)cc1)Nc1nnc(-c2ccccn2)[nH]1`: 25 to 50%; for `Cc1cc(NCCNC(=O)c2ccco2)nc(-c2ccccn2)n1`: 25 to 50%. Still for that read-out and setting: for `CCc1ccc(-c2nc(C)c(C(=O)N(Cc3ccco3)C3CCS(=O)(=O)C3)s2)cc1` (stereo not shown) the value was 25 to 50%; for `COc1cc(COCC(=O)Nc2ccnc(-c3ccccn3)n2)ccn1` [drawing 2813], 25 to 50%. Consider `COc1ccc(CCNC(=O)c2cc(S(=O)(=O)N3CCOCC3)ccc2OC)cc1OC`, for which the inhibition at 20 µM lay in the range of 1 to 25%. Still for that read-out and setting: the same measure for `CN1CCN(Cc2nnc(-c3ccccc3Cl)o2)c2ccc(F)cc21`: 25 to 50%. Still for that read-out and setting: the same measure for `Cc1nc(CNc2ccccc2Oc2cccc(F)c2)no1`: 1 to 25%.

Take `COc1ccccc1-c1nnc(CNc2ccc(Cl)cc2Cl)o1`: the inhibition at 20 µM was 1 to 25%. The same measure, in the same setting: for `O=C(c1cc(-c2ccccc2)on1)N(Cc1ccco1)C1CCCC1` the value was 25 to 50%; for `CC(C)N1C(=O)CC(Nc2cc(C(F)(F)F)nc(-c3ccccn3)n2)C1=O` (stereo not shown), 1 to 25%. Same read-out and setting: for `COC(=O)c1ccc2c(=O)[nH]c(-c3ccccn3)nc2c1` the value was 25 to 50%; for `O=C(c1csc2c(O)nc(-c3ccccn3)nc12)N1CCN(c2ccccc2F)CC1` [drawing 2721], 25 to 50%; for `Nc1nc(O)c2scc(C(=O)N3CCc4ccccc4CC3)c2n1` [drawing 2671], 1 to 25%.

With `CC(C)N1CC(C(=O)Nc2nnc(-c3ccccn3)[nH]2)CC1=O` (stereo not shown), the inhibition at 20 µM is 25 to 50%.

In the case of `CC(=O)Nc1ccc(-c2nc(NC3CCCCC3)sc2C)cc1`, the inhibition at 20 µM was 1 to 25%. Same read-out and setting: the same measure for `COc1c(C)cnc(CN2CCCCC2c2ncc[nH]2)c1C` (stereo not shown): 25 to 50%; for `Cc1[nH]c(-c2ccccn2)nc(=O)c1C`: 25 to 50%.

Still in this test, the particulars now being: 20 μM; read-out: KRas G12D Q61H % Inh.
In the case of `COc1cn(-c2ccccc2)nc1C(=O)Nc1nnc(-c2ccccn2)[nH]1` [drawing 2557], the inhibition at 20 µM was in the range of 76 to 100%. Still for that read-out and setting: for `O=C(Nc1nnc(-c2ccccn2)[nH]1)C1Cc2ccccc2O1` (stereo not shown) [drawing 2509] the value was 51 to 75%; for `COC(=O)c1cc(NC(=O)CCc2c(C)nc(-c3ccccn3)nc2O)ccc1Cl` [drawing 2600], 51 to 75%. On the same count and under the same terms, for `COc1ccc(CC(=O)Nc2nnc(-c3ccccn3)[nH]2)cc1` [drawing 2485] the value was 51 to 75%. Same read-out and setting: the same measure for `O=C(Nc1nnc(-c2ccccn2)[nH]1)c1ccc2c(c1)CCO2` [drawing 2455]: 51 to 75%; for `Cc1nc2nc(C(F)(F)F)nn2c(C)c1CC(=O)Nc1nnc(-c2ccccn2)[nH]1` [drawing 2533]: 51 to 75%; for `O=C(Nc1nnc(-c2ccccn2)[nH]1)C1Cc2cc(Cl)ccc2O1` (stereo not shown) [drawing 2548]: 51 to 75%. For `Cc1nc(-c2ccccn2)nc(O)c1CCC(=O)Nc1cccc(OCC(=O)N2CCCC2)c1` [drawing 2601], the inhibition at 20 µM was in the range of 25 to 50%.

Take `CC(OCC(F)(F)F)C(=O)Nc1nnc(-c2ccccn2)[nH]1` (stereo not shown) [drawing 2479]: the inhibition at 20 µM lay in the range of 51 to 75%.

As for `CC(C)c1noc(CCC(=O)Nc2nnc(-c3ccccn3)[nH]2)n1` [drawing 2486], the inhibition at 20 µM is 51 to 75%. Same read-out and setting: for `N#CC1(c2ccc(C(=O)N3CCCC3CO)cc2)CC1` (stereo not shown) [drawing 2632] the value was 76 to 100%; for `CC(Oc1ccccc1Cl)C(=O)Nc1nnc(-c2ccccn2)[nH]1` (stereo not shown) [drawing 2467], 51 to 75%. On the same count and under the same terms, the same measure for `O=C(Cn1c(=O)cnc2ccccc21)Nc1nc(-c2ccccn2)cs1` [drawing 2569]: 51 to 75%; for `O=C(Nc1nc(-c2ccccn2)cs1)C1CC(=O)N(c2ccc3c(c2)OCCO3)C1` (stereo not shown) [drawing 2575]: 51 to 75%.

Take `COc1ccc2c(ccn2CC(=O)Nc2nnc(-c3ccccn3)[nH]2)c1` [drawing 2470]: the inhibition at 20 µM was in the range of 51 to 75%. Still for that read-out and setting: for `CN(CC(=O)Nc1nnc(-c2ccccn2)[nH]1)S(=O)(=O)c1ccccc1` [drawing 2558] the value was 76 to 100%; for `O=C(Nc1nnc(-c2ccccn2)[nH]1)C1CCN(C(=O)c2cccs2)CC1` [drawing 2556], 51 to 75%. The same measure, in the same setting: the same measure for `CC(Oc1cccc(C#N)c1)C(=O)Nc1nnc(-c2ccccn2)[nH]1` (stereo not shown) [drawing 2511]: 51 to 75%; for `Cc1cccc(C(=O)Nc2nnc(-c3ccccn3)[nH]2)n1` [drawing 2524]: 51 to 75%.

The test is the same for the next values; noted with them: read-out: KRas G12D Q61H IC50.
With `CC(Oc1cccc(C#N)c1)C(=O)Nc1nnc(-c2ccccn2)[nH]1` (stereo not shown) [drawing 2511], the IC50 (usually the concentration needed to halve the response being measured) was less than 5 µM.
